According to patent US20200246352A1, “Vanadyl and vanadate for use in reducing stress-induced metabolic derangement” (CFM Pharma Holding B.V., priority 2017, published 2020):
Several values for one entry are separate records, joined by “and”; a condition that tells them apart may be missing. Identical values can stand only once. Like-named read-outs stand apart in the source and are kept apart here.

System: healthy male Wistar rats
Conditions: for Effect of adrenaline infusion on blood glucose level: 0.1, 0.3 or 1 μg/kg/min infusion for 180 min; for Blood glucose levels, individual animals in duplicate: medium adrenaline dose (MA) 0.3 μg/kg/min
Experimental: In the first part of the study (Table 1, Table 3, series 1), thirteen (13) healthy male Wistar rats were anesthetized by intraperitoneal (ip.) injection of thiopental (Tiobarbital 0.5 g, Braun Medical SA) after 12 hours of fasting.

## CNCC(O)c1ccc(O)c(O)c1 (stereo not shown) [adrenaline]
  Effect of adrenaline infusion on blood glucose level: inflicts hyperglycemic state in an adrenaline dose dependent manner
Listed as Adrenaline
  Effect of adrenaline infusion on blood glucose level: dose-dependent continuous increase in blood glucose level
High dose 1 μg/kg/min infusion, 0 min (before infusion)
  Blood glucose level, mean: 5.39 mM/l
High dose 1 μg/kg/min infusion, 15 min
  Blood glucose level, mean: 5.46 mM/l
High dose 1 μg/kg/min infusion, 30 min
  Blood glucose level, mean: 5.69 mM/l
High dose 1 μg/kg/min infusion, 45 min
  Blood glucose level, mean: 6.62 mM/l
High dose 1 μg/kg/min infusion, 60 min
  Blood glucose level, mean: 7.93 mM/l
High dose 1 μg/kg/min infusion, 90 min
  Blood glucose level, mean: 10.95 mM/l
High dose 1 μg/kg/min infusion, 120 min
  Blood glucose level, mean: 13.25 mM/l
High dose 1 μg/kg/min infusion, 150 min
  Blood glucose level, mean: 13.65 mM/l
High dose 1 μg/kg/min infusion, 180 min
  Blood glucose level, mean: 13.81 mM/l
Highest dose 1 μg/kg/min
  Time of peak blood glucose level after start of infusion: around 120 min
Low dose 0.1 μg/kg/min infusion, 0 min (before infusion)
  Blood glucose level, mean: 5.09 mM/l
Low dose 0.1 μg/kg/min infusion, 15 min
  Blood glucose level, mean: 5.31 mM/l
Low dose 0.1 μg/kg/min infusion, 30 min
  Blood glucose level, mean: 5.26 mM/l
Low dose 0.1 μg/kg/min infusion, 45 min
  Blood glucose level, mean: 5.18 mM/l
Low dose 0.1 μg/kg/min infusion, 60 min
  Blood glucose level, mean: 5.70 mM/l
Low dose 0.1 μg/kg/min infusion, 90 min
  Blood glucose level, mean: 6.16 mM/l
Low dose 0.1 μg/kg/min infusion, 120 min
  Blood glucose level, mean: 7.09 mM/l
Low dose 0.1 μg/kg/min infusion, 150 min
  Blood glucose level, mean: 7.89 mM/l
Low dose 0.1 μg/kg/min infusion, 180 min
  Blood glucose level, mean: 8.34 mM/l
30 min
  Blood glucose levels, individual animals in duplicate: 6.0 mM/l (2×) and 5.9 mM/l
45 min
  Blood glucose levels, individual animals in duplicate: 4.7 mM/l and 4.3 mM/l and 5.7 mM/l
60 min
  Blood glucose levels, individual animals in duplicate: 6.4 mM/l (2×) and 6.7 mM/l
90 min
  Blood glucose levels, individual animals in duplicate: 6.0 mM/l and 7.4 mM/l and 9.5 mM/l
120 min
  Blood glucose levels, individual animals in duplicate: 8.7 mM/l and 8.9 mM/l and 11.7 mM/l
150 min
  Blood glucose levels, individual animals in duplicate: 7.5 mM/l and 7.1 mM/l and 12.8 mM/l
180 min
  Blood glucose levels, individual animals in duplicate: 5.3 mM/l (2×) and 13.2 mM/l
Medium dose 0.3 μg/kg/min infusion, 0 min (before infusion)
  Blood glucose level, mean: 5.53 mM/l
Medium dose 0.3 μg/kg/min infusion, 15 min
  Blood glucose level, mean: 6.45 mM/l
Medium dose 0.3 μg/kg/min infusion, 30 min
  Blood glucose level, mean: 6.36 mM/l
Medium dose 0.3 μg/kg/min infusion, 45 min
  Blood glucose level, mean: 6.34 mM/l
Medium dose 0.3 μg/kg/min infusion, 60 min
  Blood glucose level, mean: 7.85 mM/l
Medium dose 0.3 μg/kg/min infusion, 90 min
  Blood glucose level, mean: 10.15 mM/l
Medium dose 0.3 μg/kg/min infusion, 120 min
  Blood glucose level, mean: 11.36 mM/l
Medium dose 0.3 μg/kg/min infusion, 150 min
  Blood glucose level, mean: 10.96 mM/l
Medium dose 0.3 μg/kg/min infusion, 180 min
  Blood glucose level, mean: 10.19 mM/l
